In the supplement of paper PMC10307832:

How the values were obtained:
Assay in all cases: relative viability (nuclei count vs DMSO), 5 days (fraction); higher = more cells survive
NCI-H2170 = tested on: NCI-H2170
Procedure, shortened: (§1)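 Dosing by pin tool came one day after lung cancer cell lines were seeded in 1536-well plates, using either one drug or a fixed anchor-drug dose plus five library-drug doses (not always all listed) in √10 steps. After 5 days, nuclei were counted on 4× images. Relative viability is treated-well nuclei count divided by vehicle-well nuclei count, and values are medians of duplicate plates.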

NCI-H1975 = tested on: NCI-H1975
Procedure, shortened: as §1

ChaGo-K-1 = tested on: ChaGo-K-1
Procedure, shortened: as §1

NCI-H441 = tested on: NCI-H441
Procedure, shortened: as §1

NCI-H23 = tested on: NCI-H23
Procedure, shortened: as §1

A-427 = tested on: A-427
Procedure, shortened: as §1

NCI-H596 = tested on: NCI-H596
Procedure, shortened: as §1

HCC-366 = tested on: HCC-366
Procedure, shortened: as §1

NCI-H1734 = tested on: NCI-H1734
Procedure, shortened: as §1

NCI-H1666 = tested on: NCI-H1666
Procedure, shortened: as §1

H3255 = tested on: H3255
Procedure, shortened: as §1

PC-3 [JPC-3] = settings: first compound 0.0002 µM
Procedure, shortened: as §1

`CC(=O)O[C@@]12CO[C@@H]1C[C@H](O)[C@@]1(C)C(=O)[C@H](O)C3=C(C)[C@@H](OC(=O)[C@H](O)[C@@H](NC(=O)OC(C)(C)C)c4ccccc4)C[C@@](O)([C@@H](OC(=O)c4ccccc4)[C@H]21)C3(C)C` [Docetaxel] + Nc1nc2[nH]cc(CCc3ccc(C(=O)N[C@@H](CCC(=O)O)C(=O)O)cc3)c2c(=O)[nH]1 [Pemetrexed] (partner 0.2 µM) was tested, and the relative viability (NCI-H2170; first compound 0.0002 µM) was 0.26, the relative viability (NCI-H2170; first compound 0.000632 µM) was 0.257 and the relative viability (NCI-H2170; first compound 0.002 µM) was 0.251. The relative viability (NCI-H2170; first compound 0.006325 µM) was 0.177, the relative viability (NCI-H2170; first compound 0.02 µM) was 0.174 and the relative viability (NCI-H1975; first compound 0.0002 µM) was 0.286. For the same molecule, the relative viability (NCI-H1975; first compound 0.000632 µM) was 0.277, the relative viability (NCI-H1975; first compound 0.002 µM) was 0.232 and the relative viability (NCI-H1975; first compound 0.006325 µM) was 0.18. For the same molecule, the relative viability (NCI-H1975; first compound 0.02 µM) was 0.137, the relative viability (ChaGo-K-1; first compound 0.0002 µM) was 0.269 and the relative viability (ChaGo-K-1; first compound 0.000632 µM) was 0.269. It also gave a relative viability (ChaGo-K-1; first compound 0.002 µM) of 0.276, a relative viability (ChaGo-K-1; first compound 0.006325 µM) of 0.268 and a relative viability (ChaGo-K-1; first compound 0.02 µM) of 0.181. The relative viability (NCI-H441; first compound 0.000632 µM) was 0.253, the relative viability (NCI-H441; first compound 0.002 µM) was 0.206 and the relative viability (NCI-H441; first compound 0.006325 µM) was 0.198. The relative viability (NCI-H23; first compound 0.0002 µM) was 0.712, the relative viability (NCI-H23; first compound 0.000632 µM) was 0.557 and the relative viability (NCI-H23; first compound 0.002 µM) was 0.258. For the same molecule, the relative viability (NCI-H23; first compound 0.006325 µM) was 0.207, the relative viability (NCI-H23; first compound 0.02 µM) was 0.14 and the relative viability (A-427; first compound 0.0002 µM) was 0.886. The relative viability (A-427; first compound 0.000632 µM) was 0.946, the relative viability (A-427; first compound 0.002 µM) was 0.822 and the relative viability (A-427; first compound 0.006325 µM) was 0.323. For the same molecule, the relative viability (NCI-H596; first compound 0.0002 µM) was 0.486, the relative viability (NCI-H596; first compound 0.000632 µM) was 0.568 and the relative viability (NCI-H596; first compound 0.002 µM) was 0.675. For the same molecule, the relative viability (NCI-H596; first compound 0.006325 µM) was 0.441, the relative viability (NCI-H596; first compound 0.02 µM) was 0.369 and the relative viability (HCC-366; first compound 0.0002 µM) was 0.162. It also gave a relative viability (HCC-366; first compound 0.000632 µM) of 0.16, a relative viability (HCC-366; first compound 0.002 µM) of 0.0677 and a relative viability (HCC-366; first compound 0.006325 µM) of 0.0361. The relative viability (HCC-366; first compound 0.02 µM) was 0.0202, the relative viability (NCI-H1734; first compound 0.0002 µM) was 0.425 and the relative viability (NCI-H1734; first compound 0.000632 µM) was 0.521. It also gave a relative viability (NCI-H1734; first compound 0.002 µM) of 0.405, a relative viability (NCI-H1734; first compound 0.006325 µM) of 0.303 and a relative viability (NCI-H1734; first compound 0.02 µM) of 0.239. The relative viability (NCI-H1666; first compound 0.0002 µM) was 0.946, the relative viability (NCI-H1666; first compound 0.000632 µM) was 0.808 and the relative viability (NCI-H1666; first compound 0.002 µM) was 0.801. The relative viability (NCI-H1666; first compound 0.006325 µM) was 0.858, the relative viability (NCI-H1666; first compound 0.02 µM) was 0.542 and the relative viability (H3255; first compound 0.0002 µM) was 0.494. It also gave a relative viability (H3255; first compound 0.000632 µM) of 0.595, a relative viability (H3255; first compound 0.002 µM) of 0.437 and a relative viability (H3255; first compound 0.006325 µM) of 0.368. For the same molecule, the relative viability (H3255; first compound 0.02 µM) was 0.359 and the relative viability (PC-3 [JPC-3]) was 1.01.
